Where “and” joins values, the source holds several entries; their conditions need not be identical. Equal values may be shown once. Records with an inconclusive call do not appear. The calls were made as follows: active = survival T/C of 150% or more; inactive = T/C below 125% in these data. *1 amine or outer side, *2 acyl side, *3 side chain or, on linkers, in order; H or OH if unused. Where a SMILES comes first, the peptide text is derived from it. Bridges are numbered along the chain shown (N, C = ends). Roman numbers before positions name the chains, in order. [ ]: non-standard residue; d: D form. Actinocin(9to1) = Cc1c2oc3c(C)ccc(C(=O)[*:1])c3nc-2c(C(=O)[*:2])c(N)c1=O; NMeV = CN[CH](C(=O)O)C(C)C; Sar = CNCC(=O)O
Test system: Madison 109 lung carcinoma i.m., mice, median survival
Test: NCI In Vivo Anticancer Drug Screen. Data for tumor model Madison 109 Lung Carcinoma (intramuscular) in unknown mice
Details: endpoint: median survival time, higher = longer survival
Procedure: The antitumor activity of compounds was measured in mice bearing transplantable tumors. Survival or tumor size were measured and the results are expressed as the measurement made in the treated group (T) divided by the measurement made in the vehicle treated control group (C). The tumor model used in this assay is Madison 109 Lung Carcinoma (intramuscular) in unknown mice

Measured: T/C

COc1cccc2c1C(=O)c1c(O)c3c(c(O)c1C2=O)C[C@@](O)(C(=O)CO)C[C@@H]3OC1CC(N)C(O)C(C)O1 (stereo partly specified)
inactive: dose: 0.25 mg/kg/injection, schedule: Q01DX005 (ip), vehicle: water 102 % of control | dose: 0.4 mg/kg/injection, schedule: Q01DX009 (ip), vehicle: water 98 % of control | dose: 0.5 mg/kg/injection, schedule: Q01DX005 (ip), vehicle: water 119 % of control and 120 % of control | dose: 0.63 mg/kg/injection, schedule: Q04DX003 (ip), vehicle: water 104 % of control | dose: 0.8 mg/kg/injection, schedule: Q01DX009 (ip), vehicle: water 104 % of control | dose: 1.0 mg/kg/injection, schedule: Q01DX005 (ip), vehicle: water 120 % of control | dose: 1.2 mg/kg/injection, schedule: Q01DX009 (ip), vehicle: water 105 % of control | dose: 1.25 mg/kg/injection, schedule: Q04DX003 (ip), vehicle: water 96 % of control | dose: 1.6 mg/kg/injection, schedule: Q01DX009 (ip), vehicle: water 102 % of control | dose: 2.5 mg/kg/injection, schedule: Q01DX005 (ip), vehicle: water 36 % of control | dose: 2.5 mg/kg/injection, schedule: Q04DX003 (ip), vehicle: water 101 % of control

O=C(O)c1c(Cl)c(Cl)c(Cl)c(Cl)c1-c1c2cc(I)c(=O)c(I)c-2oc2c(I)c(O)c(I)cc12
inactive: dose: 4.0 mg/kg/injection, schedule: Q01DX009 (ip), vehicle: water 90 % of control | dose: 8.0 mg/kg/injection, schedule: Q01DX009 (ip), vehicle: water 102 % of control | dose: 25.0 mg/kg/injection, schedule: Q01DX009 (ip), vehicle: water 100 % of control | dose: 32.0 mg/kg/injection, schedule: Q01DX009 (ip), vehicle: water 107 % of control | dose: 50.0 mg/kg/injection, schedule: Q01DX009 (ip), vehicle: water 106 % of control | dose: 64.0 mg/kg/injection, schedule: Q01DX009 (ip), vehicle: water 99 % of control

COc1cccc2c1C(=O)c1c(O)c3c(c(O)c1C2=O)CC(O)(C(=O)CO)CC3OC1CC(N)C(O)C(C)O1 (stereo unspecified)
inactive: dose: 5.5 mg/kg/injection, schedule: Q01DX005 (ip), vehicle: water 100 % of control | dose: 52.5 mg/kg/injection, schedule: Q01DX005 (ip), vehicle: water 102 % of control

O=C1OC(C(O)CO)C(O)=C1O (stereo unspecified)
inactive: dose: 400.0 mg/kg/injection, schedule: Q01DX009 (ip), vehicle: other 98 % of control | dose: 800.0 mg/kg/injection, schedule: Q01DX009 (ip), vehicle: other 96 % of control | dose: 1600.0 mg/kg/injection, schedule: Q01DX009 (ip), vehicle: other 98 % of control

Cc1c2oc3c(C)ccc(C(=O)NC4C(=O)NC(C(C)C)C(=O)N5CCCC5C(=O)N(C)CC(=O)N(C)C(C(C)C)C(=O)OC4C)c3nc-2c(C(=O)NC2C(=O)NC(C(C)C)C(=O)N3CCCC3C(=O)N(C)CC(=O)N(C)C(C(C)C)C(=O)OC2C)c(N)c1=O (stereo unspecified) (I: TVP[Sar][NMeV] / II: TVP[Sar][NMeV]; ester I:1-I:C, II:1-II:C; linker I:N-II:N via Actinocin(9to1); configuration not given here)
inactive: dose: 0.64 mg/kg/injection, schedule: Q01DX009 (ip), vehicle: water 118 % of control | dose: 0.84 mg/kg/injection, schedule: Q01DX009 (ip), vehicle: water 124 % of control

O=[N+]([O-])c1ccc(Cl)c([N+](=O)[O-])c1
inactive: dose: 10.0 mg/kg/injection, schedule: Q01DX009 (ip), vehicle: water 119 % of control | dose: 40.0 mg/kg/injection, schedule: Q01DX001 (ip), vehicle: water 116 % of control | dose: 40.0 mg/kg/injection, schedule: Q01DX009 (ip), vehicle: water 119 % of control | dose: 80.0 mg/kg/injection, schedule: Q01DX001 (ip), vehicle: water 100 % of control | dose: 80.0 mg/kg/injection, schedule: Q01DX009 (ip), vehicle: water 109 % of control | dose: 160.0 mg/kg/injection, schedule: Q01DX001 (ip), vehicle: water 109 % of control | dose: 160.0 mg/kg/injection, schedule: Q01DX009 (ip), vehicle: water 116 % of control | dose: 320.0 mg/kg/injection, schedule: Q01DX001 (ip), vehicle: water 119 % of control | dose: 640.0 mg/kg/injection, schedule: Q01DX001 (ip), vehicle: water 90 % of control

O=CC(NC(=O)N(CCCl)N=O)C(O)C(O)C(O)CO (stereo unspecified)
inactive: dose: 5.0 mg/kg/injection, schedule: Q01DX001 (ip), vehicle: saline 108 % of control | dose: 8.4 mg/kg/injection, schedule: Q01DX001 (ip), vehicle: saline 106 % of control | dose: 14.0 mg/kg/injection, schedule: Q01DX001 (ip), vehicle: saline 105 % of control | dose: 23.0 mg/kg/injection, schedule: Q01DX001 (ip), vehicle: saline 96 % of control

CC1CCC(NC(=O)N(CCCl)N=O)CC1 (stereo unspecified)
inactive: dose: 0.5 mg/kg/injection, schedule: Q01DX009 (ip), vehicle: saline 100 % of control | dose: 1.0 mg/kg/injection, schedule: Q01DX009 (ip), vehicle: saline 93 % of control | dose: 2.0 mg/kg/injection, schedule: Q01DX001 (ip), vehicle: saline 88 % of control | dose: 2.0 mg/kg/injection, schedule: Q01DX009 (ip), vehicle: saline 95 % of control | dose: 4.0 mg/kg/injection, schedule: Q01DX001 (ip), vehicle: saline 90 % of control | dose: 4.0 mg/kg/injection, schedule: Q01DX009 (ip), vehicle: saline 107 % of control | dose: 8.0 mg/kg/injection, schedule: Q01DX001 (ip), vehicle: saline 93 % of control | dose: 8.0 mg/kg/injection, schedule: Q01DX009 (ip), vehicle: saline 115 % of control | dose: 16.0 mg/kg/injection, schedule: Q01DX001 (ip), vehicle: saline 100 % of control | dose: 32.0 mg/kg/injection, schedule: Q01DX001 (ip), vehicle: saline 106 % of control

O=[N+]([O-])c1ccc([N+](=O)[O-])c(Cl)c1
inactive: dose: 10.0 mg/kg/injection, schedule: Q02DX009 (ip), vehicle: water 122 % of control | dose: 20.0 mg/kg/injection, schedule: Q02DX009 (ip), vehicle: water 122 % of control | dose: 40.0 mg/kg/injection, schedule: Q02DX009 (ip), vehicle: water 122 % of control | dose: 80.0 mg/kg/injection, schedule: Q02DX009 (ip), vehicle: water 90 % of control

CSCS(=O)C[C@H](CO)NC(=O)/C=C/c1c(C)[nH]c(=O)[nH]c1=O (stereo partly specified)
inactive: dose: 0.02 mg/kg/injection, schedule: Q01DX009 (ip), vehicle: water 89 % of control | dose: 0.05 mg/kg/injection, schedule: Q01DX009 (ip), vehicle: water 97 % of control | dose: 0.1 mg/kg/injection, schedule: Q01DX009 (ip), vehicle: water 91 % of control | dose: 0.2 mg/kg/injection, schedule: Q01DX009 (ip), vehicle: water 94 % of control

CC1=C(/C=C/C(C)=C/C=C/C(C)=C/C(=O)O)C(C)(C)CCC1
inactive: dose: 25.0 mg/kg/injection, schedule: Q01DX009 (ip), vehicle: other 94 % of control | dose: 50.0 mg/kg/injection, schedule: Q01DX009 (ip), vehicle: other 95 % of control

NC(C=O)C(O)C(O)C(O)CO (stereo unspecified)
inactive: dose: 400.0 mg/kg/injection, schedule: Q01DX009 (ip), vehicle: saline 98 % of control | dose: 800.0 mg/kg/injection, schedule: Q01DX009 (ip), vehicle: saline 93 % of control | dose: 1600.0 mg/kg/injection, schedule: Q01DX009 (ip), vehicle: saline 96 % of control | dose: 3200.0 mg/kg/injection, schedule: Q01DX009 (ip), vehicle: saline 110 % of control

COC1=C(N)C(=O)c2nc(-c3nc(C(=O)O)c(C)c(-c4ccc(OC)c(OC)c4O)c3N)ccc2C1=O
inactive: dose: 2.0 micrograms/kg/injection, schedule: Q01DX009 (ip), vehicle: other 102 % of control | dose: 5.0 micrograms/kg/injection, schedule: Q01DX009 (ip), vehicle: other 103 % of control and 111 % of control | dose: 10.0 micrograms/kg/injection, schedule: Q01DX009 (ip), vehicle: other 106 % of control and 116 % of control | dose: 20.0 micrograms/kg/injection, schedule: Q01DX009 (ip), vehicle: other 115 % of control and 117 % of control | dose: 30.0 micrograms/kg/injection, schedule: Q01DX009 (ip), vehicle: other 109 % of control

From PubChem BioAssay AID300 (DTP/NCI, 2004)
